Data from patent US20240141330A1, “METHODS AND COMPOSITIONS FOR MUTAGENESIS SCREENING IN MAMMALIAN CELLS” (THE BOARD OF REGENTS OF THE UNIVERSITY OF TEXAS SYSTEM, priority 2021, published 2024).
Where two headings read alike, the source gives them in different places.

System: K562 cells harboring doxycycline-inducible BCR-ABL1 variants
Details: FIG. 7C
Excerpt: Values shown are averages±standard error of the mean (SEM) of 2 biological replicates.
For this example, the K562 CML cell line was used as it harbored the BCR-ABL1 fusion gene/protein and was highly sensitive to BCR-ABL1 inhibitors.
LentiMutate may create large and small indels because the HIV-1 RT is known to switch templates and have low processivity. […] As a comparison, also tested was the 35INS variant, a BCR-ABL variant detected in patient samples that truncates BCR-ABL at the end of the kinase domain, producing a kinase dead protein, due to the insertion and usage of a 35 bp sequence in an intron that acts as a novel splicing site.

Question: O=C(Nc1ccc(OC(F)(F)Cl)cc1)c1cnc(N2CC[C@@H](O)C2)c(-c2cc[nH]n2)c1 [asciminib] was tested. Which “Resistance conferred by BCR-ABL1 variant” value (deletions in ABL1 (−SV11)) did it give?
Answer: Its value is “did not”.

Question: And the “Resistance conferred by BCR-ABL1 variant” value (deletions in BCR (−SV8 and −NTCD))?
Answer: Its value is “conferred resistance”.
